# Positions of bridges follow the written chain, without caps; N, C: chain ends. Non-standard residues stand in square brackets, D forms with d. Residues, ends and D or L forms follow the SMILES beside them. S5 = C=CCCC[C@](C)(N)C(=O)O
# Key:
# [1] = the molecule shown is the open-chain precursor; 33-membered ring; resin; 60 steps
# [2] = Circular dichroism, α-helicity; type: physicochemical; conditions: CD, TFE/water (1:1), 50 μM peptide, 25 °C, 1 mm cuvette, calculated from [θ]222
# Method: The linear and stapled peptides were dissolved in the trifluoroethanol (TFE) and water (1 : 1) to a final concentration of 50 μM, respectively. The CD spectra were obtained with 1 mm quartz cuvette on Jasco-815 spectropolarimeter at 25 °C. The measurement parameters were set up as follows: wavelength, 185–260 nm; step resolution, 0.5 nm; speed, 20 nm min^−1. All spectra were converted to a uniform scale of molar ellipticity after background subtraction. The curves were smoothed using standard parameters. The ellipticity in the acquired CD spectra was converted to the molar ellipticity using the equation: [θ] = θ/(10 × c × l), where, [θ] is the Molar ellipticity (deg cm^2. d mol^−1), θ is the observed ellipticity corrected for the buffer at a given wavelength (m deg), c is the molar concentration and l is the path length (cm). The helicity of each peptide was calculated as described in a literature based on the ellipticity of the peptide's spectrum at 222 nm and the number of amino acids in the peptide sequence.
# Circular dichroism (CD) spectroscopy was used to investigate the secondary structures of the stapled and template peptides to probe structural changes induced by conformation constraint in a membrane-like milieu, including […] (TFE) and water (1 : 1). […] (Table 1, ESI ^†).
# [3] = tested on: human normal liver cell LO-2; assay: MTT toxicity against normal cells, LO-2; type: cell-based; conditions: 96 h
# Method: (§1) Anti-tumor activity was evaluated by the standard MTT assay with a slight modification measuring the median inhibitory concentration (IC50) values.[35] HCT-116 cells, HepG2 cells and A549 cells were plated in triplicate wells into a 96-well plate at 5 × 10^3/well and cultured routinely for 24 h. Cells were incubated with increasing concentrations of hymenochirin-1B and its analogs (0.1–30 μM) and continued to culture with DMEM plus 10% FBS at 37 °C and 5% CO2. After being incubated for 96 h, the absorbance A value was determined by MTT at 540 nm. The untreated HCT-116 cells, HepG2 cells and A549 cells were used as control. Each experiment was performed in duplicate. The inhibitory rate was calculated according to the following formula: inhibitory rate = (a value of the control group − a value of the study group)/a value of the control group × 100%.
# (§2) To further research the selectivity of these peptides towards cancer cells over normal cells. The growth-inhibitory activities of peptides were evaluated using the 3-(4,5-dimethylthiazol-2-yl)-2,5-diphenyltetrazolium bromide (MTT) assay against three normal cells,[35] namely, human normal liver cell LO-2, human normal Lung cell BEAS-2 and human normal kidney cell 293 T (Table S2 ^†). The experiments procedure was performed just same as growth inhibition of the peptides against tumor cells. […] It might be due to the higher averaged hydrophobicity produced by six or nine additional methylene and two olefinic carbons to the peptide to increase toxicity to human normal cells. This situation may be resolved through the addition of polar character and glycosylation into the sequence to decrease the averaged hydrophobicity to improve the selectivity of these peptides towards cancer cells over normal cells. These modifications of these peptides are under way, and the present study was focused on the improved anti-tumor activity of template peptide hymenochirin-1B.
# [4] = tested on: human normal Lung cell BEAS-2; assay: MTT toxicity against normal cells, BEAS-2B; type: cell-based; conditions: 96 h
# Method: as §1, §2
# [5] = tested on: human normal kidney cell 293 T; assay: MTT toxicity against normal cells, 293T; type: cell-based; conditions: 96 h
# Method: as §1, §2
# [6] = Protease resistance (trypsin degradation, HPLC); type: in vitro ADME; conditions: trypsin solution (5 ng/µL), room temperature, HPLC 214 nm, duplicate; for half-life at 0.1 mM: trypsin 5 ng/μL in 50 mM PBS with 2 mM CaCl2, pH 7.4 (method: trypsin buffer pH 8), peptide 0.1 mM final, sampled 0–3.5 h, HCl quench, read-out: half-life (t1/2) toward trypsin degradation (converted)
# Method: The peptides were dissolved in PBS buffer solutions (50 mM, pH = 7.4) to a final concentration of 1 mM, respectively. Trypsin was dissolved in PBS buffer (50 mM, containing 2 mM of CaCl2, pH = 8) to a final concentration of 5 ng μL^−1. Then the peptide solutions (100 μL) were incubated with trypsin solution (1 mL) at room temperature. 100 μL of digestion mixture was taken at the 0, 0.5, 1.0, 1.5, 2.0, 2.5, 3.0, and 3.5 h marks, then quenched with 20 μL of hydrochloric acid (1 M). The solution of the trypsin peptide fragments was monitored by HPLC at different time to determine the fraction of protease degradation at 214 nm. Each experiment was performed in duplicate.
# To assess the protease stability of the stapled peptides, we measured their susceptibility toward trypsin degradation at room temperature in PBS buffer (pH 7.4) with monitored by HPLC. Trypsin is a protease that predominantly cleaves at the carboxyl terminus of positive charge amino acids, such as arginine and lysine. […] Especially, only about 49% of bicyclic stapled peptide H-10 was cleaved after 3.5 h (Fig. 3 and S4 ^†).
# Fig. 3 Proteolytic stability of peptides incubated in trypsin solution (5 ng μL^−1 in 50 mM PBS buffer, pH = 7.4) at a final concentration of 0.1 mM. […] The percent of residual peptide was monitored by Analytic HPLC. All experiments were repeated at least three times. H-0 represents hymenochirin-1B.
Compound,"ring closure, overall yield [1] [%]",Helicity (%) [2] [%],"IC50 (μM) LO-2, toxicity against normal cells [3] [µM]","IC50 (μM) BEAS-2B, toxicity against normal cells [4] [µM]","IC50 (μM) 293T, toxicity against normal cells [5] [µM]",half-life at 0.1 mM [6] [min],"metabolised at 3.5 h, 0.1 mM ([6]; trypsin 5 ng/μL in 50 mM PBS, pH 7.4, peptide 0.1 mM final, 3.5 h, read-out: peptide cleaved by trypsin after 3.5 h) [%]"
C=CCCCCCC[C@@](C)(NC(=O)[C@H](CCCCNC(=O)OC(C)(C)C)NC(=O)[C@H](CC(C)C)NC(=O)[C@@H](NC(=O)[C@H](CCCCNC(=O)OC(C)(C)C)NC(=O)[C@H](CCCCNC(=O)OC(C)(C)C)NC(=O)[C@H](CC(C)C)NC(=O)[C@H](CC(=O)NC(c1ccccc1)(c1ccccc1)c1ccccc1)NC(=O)[C@H](CC(=O)OC(C)(C)C)NC(=O)[C@H](CCCCNC(=O)OC(C)(C)C)NC(=O)[C@@H](NC(=O)[C@H](CCC(=O)OC(C)(C)C)NC(=O)[C@@H]1CCCN1C(=O)[C@H](COC(C)(C)C)NC(=O)[C@H](CC(C)C)NC(=O)[C@H](CCCCNC(=O)OC(C)(C)C)NC(=O)[C@@H](NC(=O)OCC1c2ccccc2-c2ccccc21)[C@@H](C)CC)[C@@H](C)OC(C)(C)C)C(C)C)C(=O)N[C@@H](C)C(=O)N[C@H](C(=O)N[C@@H](CCCCNC(=O)OC(C)(C)C)C(=O)NCC(=O)N[C@@H](C)C(=O)N[C@H](C(=O)N[C@@](C)(CCCC=C)C(=O)N[C@H](C(=O)N[C@@H](C)C(=O)N[C@@H](CCCCNC(=O)OC(C)(C)C)C(=O)N[C@@H](CCSC)C(=O)N[C@H](C(N)=O)C(C)C)C(C)C)[C@@H](C)CC)[C@@H](C)CC,6.72,,,,,,
CC[C@H](C)[C@H](N)C(=O)N[C@@H](CCCCN)C(=O)N[C@@H](CC(C)C)C(=O)N[C@@H](CO)C(=O)N1CCC[C@H]1C(=O)N[C@@]1(C)CCCC=CCCC[C@@](C)(C(=O)N[C@@H](CC(C)C)C(=O)N[C@@H](CCCCN)C(=O)N[C@@H](CCCCN)C(=O)N[C@H](C(=O)N[C@@H](CC(C)C)C(=O)N[C@@H](CCCCN)C(=O)NCC(=O)N[C@@H](C)C(=O)N[C@H](C(=O)N[C@@H](CCCCN)C(=O)NCC(=O)N[C@@H](C)C(=O)N[C@H](C(=O)N[C@@H](C)C(=O)N[C@H](C(=O)N[C@@H](C)C(=O)N[C@@H](CCCCN)C(=O)N[C@@H](CCSC)C(=O)N[C@H](C(N)=O)C(C)C)C(C)C)[C@@H](C)CC)[C@@H](C)CC)C(C)C)NC(=O)[C@H](CC(=O)O)NC(=O)[C@H](CCCCN)NC(=O)[C@H]([C@@H](C)O)NC1=O [H-2] (H-IKLSP[S5]TKD[S5]LKKVLKGAIKGAIAVAKMV-NH2; staple 6-10),,49.3,3.40 ± 0.32,3.12 ± 0.52,3.20 ± 0.33,30,
CC[C@H](C)[C@H](N)C(=O)N[C@@H](CCCCN)C(=O)N[C@@H](CC(C)C)C(=O)N[C@@H](CO)C(=O)N1CCC[C@H]1C(=O)N[C@@H](CCC(=O)O)C(=O)N[C@H](C(=O)N[C@@H](CCCCN)C(=O)N[C@@H](CC(=O)O)C(=O)N[C@@H](CC(N)=O)C(=O)N[C@@H](CC(C)C)C(=O)N[C@@H](CCCCN)C(=O)N[C@@H](CCCCN)C(=O)N[C@H](C(=O)N[C@@H](CC(C)C)C(=O)N[C@@H](CCCCN)C(=O)NCC(=O)N[C@@H](C)C(=O)N[C@H](C(=O)N[C@@H](CCCCN)C(=O)NCC(=O)N[C@@H](C)C(=O)N[C@H](C(=O)N[C@@H](C)C(=O)N[C@H](C(=O)N[C@@H](C)C(=O)N[C@@H](CCCCN)C(=O)N[C@@H](CCSC)C(=O)N[C@H](C(N)=O)C(C)C)C(C)C)[C@@H](C)CC)[C@@H](C)CC)C(C)C)[C@@H](C)O [Hymenochirin-1B] (H-IKLSPETKDNLKKVLKGAIKGAIAVAKMV-NH2),,48.7,23.98 ± 0.32,9.24 ± 0.25,11.12 ± 0.35,16.8,
CC[C@H](C)[C@H](N)C(=O)N[C@@H](CCCCN)C(=O)N[C@@H](CC(C)C)C(=O)N[C@@H](CO)C(=O)N1CCC[C@H]1C(=O)N[C@@H](CCC(=O)O)C(=O)N[C@H](C(=O)N[C@@H](CCCCN)C(=O)N[C@@H](CC(=O)O)C(=O)N[C@@H](CC(N)=O)C(=O)N[C@@H](CC(C)C)C(=O)N[C@@H](CCCCN)C(=O)N[C@@H](CCCCN)C(=O)N[C@H](C(=O)N[C@@H](CC(C)C)C(=O)N[C@@H](CCCCN)C(=O)NCC(=O)N[C@@]1(C)CCCC=CCCC[C@@](C)(C(=O)N[C@H](C(=O)N[C@@H](C)C(=O)N[C@H](C(=O)N[C@@H](C)C(=O)N[C@@H](CCCCN)C(=O)N[C@@H](CCSC)C(=O)N[C@H](C(N)=O)C(C)C)C(C)C)[C@@H](C)CC)NC(=O)CNC(=O)[C@H](CCCCN)NC(=O)[C@H]([C@@H](C)CC)NC1=O)C(C)C)[C@@H](C)O [H-5] (H-IKLSPETKDNLKKVLKG[S5]IKG[S5]IAVAKMV-NH2; staple 18-22),,69.2,3.57 ± 0.52,5.76 ± 0.32,4.70 ± 0.32,168,
"CC[C@H](C)[C@H](N)C(=O)N[C@@H](CCCCN)C(=O)N[C@@H](CC(C)C)C(=O)N[C@@H](CO)C(=O)N1CCC[C@H]1C(=O)N[C@@]1(C)CCCC=CCCC[C@@](C)(C(=O)N[C@@H](CC(C)C)C(=O)N[C@@H](CCCCN)C(=O)N[C@@H](CCCCN)C(=O)N[C@H](C(=O)N[C@@H](CC(C)C)C(=O)N[C@@H](CCCCN)C(=O)NCC(=O)N[C@@]2(C)CCCC=CCCC[C@@](C)(C(=O)N[C@H](C(=O)N[C@@H](C)C(=O)N[C@H](C(=O)N[C@@H](C)C(=O)N[C@@H](CCCCN)C(=O)N[C@@H](CCSC)C(=O)N[C@H](C(N)=O)C(C)C)C(C)C)[C@@H](C)CC)NC(=O)CNC(=O)[C@H](CCCCN)NC(=O)[C@H]([C@@H](C)CC)NC2=O)C(C)C)NC(=O)[C@H](CC(=O)O)NC(=O)[C@H](CCCCN)NC(=O)[C@H]([C@@H](C)O)NC1=O [H-10] (H-IKLSP[S5]TKD[S5]LKKVLKG[S5]IKG[S5]IAVAKMV-NH2; staple 6-10, 18-22)",,73.3,8.78 ± 0.32,5.52 ± 0.42,10.42 ± 0.25,,~49
